The values that follow come from patent US20140259191A1, “FISH ANESTHETIC AND METHOD” (AQUA-MOR TECHNOLOGIES LTD., priority 2011, published 2014).

The test system of this test is carp fish. As to the kind of experiment: Anesthesia of carp by linalool added to tank water. Conditions: for time after addition of linalool until fish became relaxed / time until fish completely anesthetized: pH 7. The test is classed as in vivo, Cyprinus carpio. Here is the method: To a 100 liter tank containing 462 10-month old carp fish (Cyprinus carpio) of average weight 70 g and average body length 10 cm, having water at 25° C. at pH 7 was added a formulation containing 1% linalool. The formulation was added to the water to a linalool concentration of 75 ppm in the water. The fish became relaxed 3 minutes after addition of linalool and after 5 minutes were completely anesthetized. After 15 minutes the fish were removed to a recovery tank with fresh water. After 20 minutes in the recovery tank the fish resumed normal behavior.
To a 20 liter tank containing eight 2.5-year old carp fish of average weight 1 kg and average body length 50 cm in water at 20° C. and pH 7 was added a formulation containing 1% linalool. The formulation was added to the water to a linalool concentration of 100 ppm in the water. The fish became relaxed 2 minutes after addition of linalool and after 3 minutes were completely anesthetized. At 3 minutes the fish were removed to a recovery tank with fresh water. After 7 minutes in the recovery tank the fish resumed normal behavior.
To a 20 liter tank containing eight 1.8-year old carp fish of average weight 250 g and body length 21-24 cm in water at 20° C. and pH 7 was added a formulation containing 1% linalool. The formulation was added to the water to a linalool concentration of 50 ppm in the water. The fish became relaxed 3 minutes after addition of linalool and after 7 minutes were completely anesthetized. At 17 minutes the fish were removed to a recovery tank with fresh water. After 29 minutes in the recovery tank the fish resumed normal behavior.
To a 20 liter tank containing eight 2.2-year old carp fish of average weight 380 g and body length 30-32 cm in water at 20° C. and pH 7 was added a formulation containing 1% linalool. The formulation was added to the water to a linalool concentration of 100 ppm in the water. The fish became relaxed 2 minutes after addition of linalool and after 3 minutes were completely anesthetized. At 3 minutes the fish were removed to a recovery tank with fresh water. At 17 minutes in the recovery tank the fish resumed normal behavior.

Where [1] appears, read: Example 13: 462 carp, average 70 g, 75 ppm linalool, 25° C.
Where [2] appears, read: Example 14: eight carp, average 1 kg, 100 ppm linalool, 20° C.
[3] abbreviates: Example 15: eight carp, average 250 g, 50 ppm linalool, 20° C.
Setting [4] is: Example 16: eight carp, average 380 g, 100 ppm linalool, 20° C.

Take `C=CC(C)(O)CCC=C(C)C` (stereo not drawn) [linalool]: the “time after addition of linalool until fish became relaxed” value runs as follows: under setting [1], 3 min; under setting [2], 2 min; under setting [3], 3 min; under setting [4], 2 min. Further, the “time until fish completely anesthetized” value under setting [1] was 5 min, the “time until fish completely anesthetized” value under setting [2] is 3 min, the “time until fish completely anesthetized” value under setting [3] amounted to 7 min and the “time until fish completely anesthetized” value under setting [4] came out at 3 min. In addition, the “time in recovery tank until normal behavior resumed” value (Example 13: carp 70 g, 75 ppm linalool, removed after 15 minutes) was determined as 20 min; the “time in recovery tank until normal behavior resumed” value (Example 14: carp 1 kg, 100 ppm linalool, removed at 3 minutes) is 7 min; the “time in recovery tank until normal behavior resumed” value (Example 15: carp 250 g, 50 ppm linalool, removed at 17 minutes) came to 29 min; the “time in recovery tank until normal behavior resumed” value (Example 16: carp 380 g, 100 ppm linalool, removed at 3 minutes) came to 17 min.
